This is an account of results in ChEMBL document CHEMBL1201862, “PubChem BioAssay data set” (2004).

Among the test systems are DLD-1; DMS-114; DMS-273; HOP-18; KM-20L2; LXFL 529; RXF 631; SNB-78; XF498.
Holding throughout (assay): NCI anticancer screen, dose series, 48 h

Structures are written as SMILES.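 How tested: cells in 96-well plates exposed to compound for 48 hours at five concentrations. Here, GI50 denotes the concentration required for 50% inhibition of growth.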 Activity calls are given as the source filed them. No stated cut-off is given here; in the data, active = GI50 up to about 1.1 µM and inactive = higher.

Regarding `CC1CCCc2c(CC3CC(=O)NC(=O)C3)n[nH]c21` (stereo not given), the GI50 in the assay with DLD-1, in the assay on DMS-114, in the assay on DMS-273, with HOP-18, with KM-20L2 and with LXFL 529 was > 100 µM (inactive) in each case. Besides, the GI50 with RXF 631, in the assay on SNB-78 and with XF498 was > 100 µM (inactive) in each case.
As for `O=C1OC(c2ccccc2)=N/C1=C/NC(CS)C(=O)O` (stereo not given), the GI50 in the assay on DLD-1, in the assay with DMS-114, in the assay on DMS-273, in the assay with KM-20L2, in the assay with LXFL 529 and in the assay with SNB-78 was > 100 µM (inactive) each time.
As to `CC(C)(C)c1cc(C2c3cc4c(cc3OC(O)(CO)C2C(=O)O)OCO4)cc(C(C)(C)C)c1O.CC(C)(C)c1cc(C2c3cc4c(cc3OC3(O)COC(=O)C23)OCO4)cc(C(C)(C)C)c1O` (stereo not given), the GI50 with DLD-1 is 11.7 µM (inactive); in the assay with DMS-114, 8.34 µM (inactive); in the assay on DMS-273 it was 14 µM (inactive); in the assay on HOP-18, 7.78 µM (inactive); with KM-20L2, 17 µM (inactive); in the assay with RXF 631, 13.1 µM (inactive).
In the case of `O=[N+]([O-])c1ccc(/C(Cl)=C/c2ccc(/C=C(\Cl)c3ccc([N+](=O)[O-])cc3[N+](=O)[O-])cc2)c([N+](=O)[O-])c1`, the GI50 with DLD-1 was > 100 µM (inactive); in the assay on DMS-114, > 100 µM (inactive); in the assay with DMS-273, > 100 µM (inactive); in the assay on KM-20L2, 0.188 µM (active); in the assay on LXFL 529, > 100 µM (inactive); in the assay with RXF 631 it was > 100 µM (inactive). The GI50 in the assay on SNB-78 is > 100 µM (inactive).
As to `COc1cc(Nc2nc3cc(C(F)(F)F)ccc3nc2C)cc(OC)c1OC`, the GI50 with DLD-1 was 7.1 µM (inactive); with DMS-114, 11.2 µM (inactive); in the assay with DMS-273 it was 5.2 µM (inactive); with HOP-18, < 0.01 µM (active); in the assay with LXFL 529 it was 9.91 µM (inactive); with SNB-78 it was 11.1 µM (inactive). The GI50 with XF498 is 2.3 µM (inactive).
Turning to `Cc1oc2c(C)c3oc(=O)cc(C)c3cc2c1CN`, the GI50 is 43.3 µM (inactive) with DLD-1; 41.2 µM (inactive) in the assay with DMS-114; > 100 µM (inactive) with HOP-18; 34.4 µM (inactive) in the assay with KM-20L2; 37.5 µM (inactive) in the assay with LXFL 529; 29.1 µM (inactive) in the assay on RXF 631. The figures for the GI50 in the assay with SNB-78 and in the assay with XF498 were 53.5 µM (inactive) and 20.7 µM (inactive), respectively.
As to `CCCCCNC(=O)CCCCCCCCCCCNC(=O)CCCCCCCCCCN1C=CC(=CC=C2C=CC(=O)C=C2)C=C1`, the GI50 is > 100 µM (inactive) in the assay on DLD-1; 12.6 µM (inactive) in the assay with DMS-114; 23.8 µM (inactive) with DMS-273; > 100 µM (inactive) with KM-20L2; 5.86 µM (inactive) in the assay with LXFL 529; > 100 µM (inactive) in the assay on RXF 631. Moreover, the GI50 is 15.3 µM (inactive) in the assay with SNB-78 and 10.3 µM (inactive) with XF498.
Take `CC[C@@]1(OC(=O)C(N)CCC(=O)O)C(=O)OCc2c1cc1n(c2=O)Cc2cc3ccccc3nc2-1` (stereo not given in full): the GI50 is 1.48 µM (inactive) in the assay with DLD-1; 0.0493 µM (active) in the assay with DMS-114; 0.0183 µM (active) with DMS-273; 0.217 µM (active) with HOP-18; 0.474 µM (active) with KM-20L2; 1.38 µM (inactive) in the assay on LXFL 529. Further, the figures for the GI50 with SNB-78 and in the assay with XF498 were 1.82 µM (inactive) and 0.197 µM (active), respectively.
Regarding `C/C(=N\NC(N)=S)c1cc(C)c(C)cc1C`, the GI50 was 53.3 µM (inactive) in the assay on DLD-1; 21 µM (inactive) in the assay on DMS-114; 19.3 µM (inactive) with DMS-273; 62.8 µM (inactive) with HOP-18; 35.6 µM (inactive) in the assay with KM-20L2; 27.7 µM (inactive) in the assay on LXFL 529. Besides, the GI50 with RXF 631 was 57.7 µM (inactive); in the assay with SNB-78, > 100 µM (inactive); with XF498, 23 µM (inactive).
`O=C1C(c2ccccc2)=C(O)c2cccc3cccc1c23`: the GI50 with DMS-114 was > 100 µM (inactive); with DMS-273 it was > 100 µM (inactive); in the assay with HOP-18, 33.6 µM (inactive); in the assay with KM-20L2, > 100 µM (inactive); in the assay with LXFL 529, > 100 µM (inactive); in the assay on SNB-78, > 100 µM (inactive). Moreover, the GI50 with XF498 was > 100 µM (inactive).
`O=C(NC1C(=O)NNC1c1ccccc1Cl)c1ccccc1` (stereo not given): the GI50 with DLD-1, in the assay with DMS-114, with DMS-273, in the assay on HOP-18, with KM-20L2 and in the assay on LXFL 529 was > 100 µM (inactive) in each case. Moreover, the GI50 in the assay with XF498 is > 100 µM (inactive).
Regarding `O=C1C(=O)N(C(=O)c2ccc(Cl)c(Cl)c2)c2ccc(Cl)cc21`, the GI50 in the assay on DLD-1 is 73.5 µM (inactive); in the assay on DMS-114, 27.1 µM (inactive); with DMS-273, > 100 µM (inactive); in the assay on HOP-18, > 100 µM (inactive); in the assay with LXFL 529, 71.4 µM (inactive); in the assay with SNB-78 it was > 100 µM (inactive).
In the case of `COC(=O)c1c(C)cc2c(c1O)C1(O)C(=O)c3cc4c(c(O)c3C(=O)C1(OC)C(O)C2)C(=O)C=C(NC1OC(C)C(OC)C(O)C1OC)C4=O` (stereo not given), the GI50 in the assay on DLD-1 is 0.0199 µM (active); in the assay with DMS-114 it was 0.0104 µM (active); in the assay on DMS-273, 0.103 µM (active); in the assay with KM-20L2 it was 0.104 µM (active); with LXFL 529, 0.0679 µM (active); in the assay with SNB-78, 0.0521 µM (active). In the assay on XF498, the GI50 is 0.114 µM (active).
In the case of `COc1cc(-c2ccccc2)c(OC)cc1CCl`, the GI50 in the assay with DLD-1, in the assay with DMS-114, with DMS-273, with HOP-18, in the assay with KM-20L2 and in the assay with RXF 631 was > 100 µM (inactive) in each case. The GI50 in the assay with SNB-78 and with XF498 was > 100 µM (inactive) each time.
`COc1ccc(/C=C/C(=O)c2cc(C(=O)O)c(OC)cc2OC)cc1OC`: the GI50 in the assay with DLD-1, in the assay with DMS-114, in the assay with DMS-273, in the assay on HOP-18, in the assay with KM-20L2 and in the assay on LXFL 529 was > 100 µM (inactive) in each case. Also, the GI50 in the assay with SNB-78 was > 100 µM (inactive).
In the case of `COC1CC(C)C(OC)c2cc(O)cc(c2O)NC(=O)/C(C)=C/C=C\C(C)C(OC(N)=O)/C(C)=C\C(C)C1OC` (stereo not given), the GI50 was 0.406 µM (active) in the assay on DMS-114; 0.225 µM (active) with DMS-273; 0.0925 µM (active) with HOP-18; 0.188 µM (active) in the assay on KM-20L2; 0.191 µM (active) in the assay on LXFL 529; 1.42 µM (inactive) in the assay on SNB-78.
Consider `O=c1c2ccccc2c(=O)c2c1c1[nH]c3ccccc3c1c1c(=O)c3ccccc3c(=O)c21`, for which the GI50 in the assay on DLD-1, with DMS-114, in the assay with DMS-273, with HOP-18, in the assay with KM-20L2 and in the assay with RXF 631 was > 100 µM (inactive) each time. The GI50 in the assay on SNB-78 and in the assay with XF498 was > 100 µM (inactive) each time.
For the compound `O=C(O)Cc1ccccc1CCc1ccccc1Cl`, the GI50 was > 100 µM (inactive) in the assay on DLD-1; > 100 µM (inactive) in the assay with DMS-273; 50.1 µM (inactive) with HOP-18; > 100 µM (inactive) in the assay with KM-20L2; > 100 µM (inactive) with LXFL 529; > 100 µM (inactive) in the assay on SNB-78. Moreover, the GI50 in the assay with XF498 was > 100 µM (inactive).
With `Cc1cc(N(CCC#N)CCC#N)ccc1/C=C(\NC(=O)/C=C/c1ccccc1)C(=O)NN`, the GI50 in the assay with DLD-1, in the assay on DMS-114, with DMS-273, with KM-20L2, with LXFL 529 and in the assay on SNB-78 was > 100 µM (inactive) each time. Moreover, in the assay on XF498, the GI50 was 25.6 µM (inactive).
As for `O=C(Nc1ccc([N+](=O)[O-])cc1C(=O)O)c1ccc([N+](=O)[O-])cc1`, the GI50 with DLD-1 was 35.4 µM (inactive); in the assay with DMS-114 it was 5.97 µM (inactive); with DMS-273, 31.2 µM (inactive); with KM-20L2, 18.4 µM (inactive); with LXFL 529, 24.4 µM (inactive); in the assay with RXF 631, 21.1 µM (inactive). Moreover, in the assay with XF498, the GI50 is 23.3 µM (inactive).
As for `O=[PH](O)c1cc2ccccc2c2ccccc12`, the GI50 in the assay on DLD-1, with DMS-114, in the assay on DMS-273, in the assay on HOP-18, in the assay with KM-20L2 and in the assay with LXFL 529 was > 100 µM (inactive) in each case. Moreover, the GI50 in the assay with SNB-78 was > 100 µM (inactive).
For the compound `CC(=O)OC(CC1(C)C(C)CCC23COC(=O)C2=CCCC31)c1ccoc1` (stereo not given), the GI50 was 26 µM (inactive) with DLD-1; 29.9 µM (inactive) with DMS-114; 19.3 µM (inactive) with KM-20L2; 18.4 µM (inactive) with LXFL 529; 25.4 µM (inactive) with SNB-78; 20.8 µM (inactive) with XF498.
`C=C1C2CC(OC(C)=O)C3(C)C(c4ccoc4)OC(=O)[C@@H](O)[C@]13OC1C[C@H](OC(C)=O)C(C)(C)[C@H](CC(=O)OC)[C@]12C` (stereo not given in full): the GI50 in the assay on DMS-114, in the assay on DMS-273, in the assay on HOP-18, in the assay with KM-20L2, in the assay on LXFL 529 and in the assay on RXF 631 was > 100 µM (inactive) each time. The GI50 with SNB-78 was > 100 µM (inactive).
As to `N#C/C(=C\c1ccc(O)c(O)c1)C(N)=O`, the GI50 in the assay with DLD-1 was 48.2 µM (inactive); in the assay with DMS-114, 22.7 µM (inactive); in the assay on DMS-273 it was 57.7 µM (inactive); in the assay with KM-20L2, 50.4 µM (inactive); with LXFL 529 it was 40.7 µM (inactive); in the assay with RXF 631 it was 56 µM (inactive). In addition, in the assay with SNB-78, the GI50 was > 100 µM (inactive).
As for `C#C[C@]1(O)CC[C@H]2[C@@H]3CCc4cc(O)ccc4[C@H]3CC[C@@]21C` [ETHINYL ESTRADIOL], the GI50 in the assay with DLD-1 was 12.6 µM (inactive); in the assay with DMS-114, 16.3 µM (inactive); in the assay on DMS-273 it was > 10 µM (inactive); in the assay on HOP-18, > 100 µM (inactive); in the assay on KM-20L2 it was 16.7 µM (inactive); with LXFL 529, 21.5 µM (inactive). Besides, the GI50 with SNB-78 was 33.4 µM (inactive); with XF498 it was 28.7 µM (inactive).
